The subject of assay [1] is Dengue 1 virus MY97-10245. The experiment in a line: High-content imaging cell-based flavivirus immunodetection (HCl-CFI) assay, Dengue 1. Particulars: Dengue virus, A549, 48 h, read-out: Dengue 1 virus MY97-10245 in A549 using HCl [Inhibitor/IC50] Qualified AC50.
Assay [2] concerns Dengue 2 virus MY97-10340. The experiment in a line: High-content imaging cell-based flavivirus immunodetection (HCl-CFI) assay, Dengue 2. As to conditions: Dengue virus, A549, 48 h, read-out: Dengue 2 virus MY97-10340 in A549 using HCl [Inhibitor/IC50] Qualified AC50, A549 cells, MOI 0.3, 48 h, viral E protein expression. On the procedure:
High-Content Imaging Cell-Based Flavivirus Immunodetection (HCl-CFI) Assay
A549 cells (7×10^3 cells per well) in a 384-well plate were infected with the DENV-2 (MY97-10340) strain at an MOI of 0.3. The cells were then treated with 3-fold, 10-point serial dilutions of test compound. After 48 h, the cells were fixed with paraformadehyde, and the viral E protein detected with 4G2 antibody labeled with Dylight™ 488 (GenScript). Cell nuclei were stained with Draq5 (Pierce/Thermo), and images were taken on the Opera imaging system (Perkin Elmer). A dose-response curve was plotted to calculate the effective concentration of compound needed to reduce expression of E protein by 50% (EC50) using GraphPad Prism.
The resulted EC50 values are summarized in Table 1 below: ±≥1 μM; 1 μM>++≥0.1 μM; 0.1 μm>+++

The test system of assay [3] is Dengue 3 virus MY05-34640-WT-C6/36. Put plainly: High-content imaging cell-based flavivirus immunodetection (HCl-CFI) assay, Dengue 3. As to conditions: Dengue virus, A549, 48 h, read-out: Dengue 3 virus MY05-34640-WT-C6/36 in A549 using HCl [Inhibitor/IC50] Qualified AC50.
Assay [4] concerns Dengue 4 virus MY01-22713. The experiment in a line: High-content imaging cell-based flavivirus immunodetection (HCl-CFI) assay, Dengue 4. Particulars: Dengue virus, A549, 48 h, read-out: Dengue 4 virus MY01-22713 in A549 using HCl [Inhibitor/IC50] Qualified AC50, A549 cells, 48 h, viral E protein expression.

Consider `CC(C1CCCCC1)N1CCc2sc(NC(=O)Cc3ccc(S(N)(=O)=O)cc3)c(C#N)c2C1` (stereo not shown) [Example 3, N-(3-cyano-5-(1-cyclohexylethyl)-4,5,6,7-tetrahydrothieno[3,2-c]pyridin-2-yl)-2-(4-sulfamoylphenyl)acetamide], for which the EC50 in assay [1] is 100 to 1000 nM; in assay [2], below 100 nM; in assay [3] it was below 100 nM; in assay [4], below 100 nM.
For `CC1Cc2sc(NC(=O)Cc3ccc(C(N)=O)cc3)c(C#N)c2CN1Cc1cccc(F)c1` (stereo not shown) [Example 58, 4-(2-((3-cyano-5-(3-fluorobenzyl)-6-methyl-4,5,6,7-tetrahydrothieno[3,2-c]pyridin-2-yl)amino)-2-oxoethyl)benzamide], the EC50 in assay [1] is 100 to 1000 nM; in assay [2] it was below 100 nM; in assay [3] it was below 100 nM; in assay [4], below 100 nM.
As for `COc1cc(CC(=O)Nc2sc3c(c2C#N)CN(Cc2cccc(F)c2)CC3)ccc1S(N)(=O)=O` [Example 22, N-(3-cyano-5-(3-fluorobenzyl)-4,5,6,7-tetrahydrothieno[3,2-c]pyridin-2-yl)-2-(3-methoxy-4-sulfamoylphenyl)acetamide], the EC50 in assay [1] was 100 to 1000 nM; in assay [2], below 100 nM; in assay [3], below 100 nM; in assay [4] it was below 100 nM.
Take `N#Cc1c(NC(=O)Cc2ccc(S(N)(=O)=O)cc2)sc2c1CCN(Cc1cc(F)cc(F)c1)C2` [Example 93, N-(3-cyano-6-(3,5-difluorobenzyl)-4,5,6,7-tetrahydrothieno[2,3-c]pyridin-2-yl)-2-(4-sulfamoylphenyl) acetamide]: the EC50 in assay [1] was 100 to 1000 nM; in assay [2], below 100 nM; in assay [3], below 100 nM; in assay [4], below 100 nM.
For `N#Cc1c(NC(=O)Cc2ccc(S(N)(=O)=O)cc2)sc2c1CCN(Cc1c(Cl)cccc1Cl)C2` [Example 112, N-(3-cyano-6-(2,6-dichlorobenzyl)-4,5,6,7-tetrahydrothieno[2,3-c]pyridin-2-yl)-2-(4-sulfamoylphenyl)acetamide], the EC50 is above 1000 nM in assay [1], 100 to 1000 nM in assay [2], 100 to 1000 nM in assay [3] and below 100 nM in assay [4].
For `CC1Cc2sc(NC(=O)Cc3ccc(S(=O)(=O)NCC4CCCCC4)cc3)c(C#N)c2CN1CC1CCCCC1` (stereo not shown) [Example 63, N-(3-cyano-5-(cyclohexylmethyl)-6-methyl-4,5,6,7-tetrahydrothieno[3,2-c]pyridin-2-yl)-2-(4-(N-(cyclohexylmethyl)sulfamoyl)phenyl)acetamide], the EC50 in assay [1] was above 1000 nM; in assay [2], 100 to 1000 nM; in assay [3] it was 100 to 1000 nM; in assay [4] it was 100 to 1000 nM.
Consider `CC1(C)CS(=O)(=O)c2ccc(CC(=O)Nc3sc4c(c3C#N)CN(CC3CCCCC3)C(C)(C)C4)cc21` [Example 72, N-(3-cyano-5-(cyclohexylmethyl)-6,6-dimethyl-4,5,6,7-tetrahydrothieno[3,2-c]pyridin-2-yl)-2-(3,3-dimethyl-1,1-dioxido-2,3-dihydrobenzo[b]thiophen-5-yl)acetamide], for which the EC50 in assay [1], in assay [2], in assay [3] and in assay [4] was below 100 nM in each case.
`CC1Cc2sc(NC(=O)Cc3ccc(S(N)(=O)=O)cc3)c(C#N)c2CN1CCc1ccccc1` (stereo not shown) [Example 67, N-(3-cyano-6-methyl-5-phenethyl-4,5,6,7-tetrahydrothieno[3,2-c]pyridin-2-yl)-2-(4-sulfamoylphenyl)acetamide]: the EC50 was above 1000 nM in assay [1], below 100 nM in assay [2], below 100 nM in assay [3] and below 100 nM in assay [4].
As for `N#Cc1c(NC(=O)Cc2ccc(S(N)(=O)=O)cc2)sc2c1CCN(Cc1c(F)cccc1Cl)C2` [Example 111, N-(6-(2-chloro-6-fluorobenzyl)-3-cyano-4,5,6,7-tetrahydrothieno[2,3-c]pyridin-2-yl)-2-(4-sulfamoylphenyl)acetamide], the EC50 in assay [1] was 100 to 1000 nM; in assay [2], below 100 nM; in assay [3], below 100 nM; in assay [4], below 100 nM.
In the case of `N#Cc1c(NC(=O)Cc2ccc3c(c2)CNC3)sc2c1CN(Cc1cccc(F)c1)CC2` [Example 26, N-(3-cyano-5-(3-fluorobenzyl)-4,5,6,7-tetrahydrothieno[3,2-c]pyridin-2-yl)-2-(isoindolin-5-yl)acetamide], the EC50 in assay [1], in assay [2], in assay [3] and in assay [4] was above 1000 nM each time.
With `N#Cc1c(NC(=O)Cc2ccc(S(N)(=O)=O)cc2)sc2c1CN(CC13CC(F)(C1)C3)CC2` [Example 1, N-(3-cyano-5-((3-fluorobicyclo[1.1.1]pentan-1-yl)methyl)-4,5,6,7-tetrahydrothieno[3,2-c]pyridin-2-yl)-2-(4-sulfamoylphenyl)acetamide], the EC50 in assay [1] is above 1000 nM; in assay [2] it was 100 to 1000 nM; in assay [3], 100 to 1000 nM; in assay [4], 100 to 1000 nM.
On to `CC1Cc2sc(NC(=O)Cc3ccc(S(N)(=O)=O)cc3)c(C#N)c2CN1Cc1cc(F)cc(F)c1` (stereo not shown) [Example 85, N-(3-cyano-5-(3,5-difluorobenzyl)-6-methyl-4,5,6,7-tetrahydrothieno[3,2-c]pyridin-2-yl)-2-(4-sulfamoylphenyl)acetamide], for which the EC50 in assay [1] was 100 to 1000 nM; in assay [2] it was below 100 nM; in assay [3] it was below 100 nM; in assay [4] it was below 100 nM.
As for `Cc1cccc(CN2CCc3c(sc(NC(=O)Cc4ccc(S(C)(=O)=O)cc4)c3C#N)C2)c1` [Example 104, N-(3-cyano-6-(3-methylbenzyl)-4,5,6,7-tetrahydrothieno[2,3-c]pyridin-2-yl)-2-(4-(methylsulfonyl)phenyl)acetamide], the EC50 in assay [1] was above 1000 nM; in assay [2], 100 to 1000 nM; in assay [3] it was 100 to 1000 nM; in assay [4], below 100 nM.
As to `COc1cc(F)cc(CC(=O)Nc2sc3c(c2C#N)CN(Cc2cccc(F)c2)CC3)c1` [Example 35, N-(3-cyano-5-(3-fluorobenzyl)-4,5,6,7-tetrahydrothieno[3,2-c]pyridin-2-yl)-2-(3-fluoro-5-methoxyphenyl)acetamide], the EC50 in assay [1] is above 1000 nM; in assay [2], 100 to 1000 nM; in assay [3], 100 to 1000 nM; in assay [4], 100 to 1000 nM.
With `CS(=O)(=O)Nc1ccc(CC(=O)Nc2sc3c(c2C#N)CN(CC2CCCCC2)CC3)cc1` [Example 13, N-(3-cyano-5-(cyclohexylmethyl)-4,5,6,7-tetrahydrothieno[3,2-c]pyridin-2-yl)-2-(4-(methylsulfonamido)phenyl)acetamide], the EC50 in assay [1], in assay [2], in assay [3] and in assay [4] was 100 to 1000 nM throughout.
Regarding `N#Cc1c(NC(=O)Cc2ccc(S(N)(=O)=O)c(F)c2)sc2c1CN(Cc1cccc(F)c1)CC2` [Example 43, N-(3-cyano-5-(3-fluorobenzyl)-4,5,6,7-tetrahydrothieno[3,2-c]pyridin-2-yl)-2-(3-fluoro-4-sulfamoylphenyl)acetamide], the EC50 in assay [1] was 100 to 1000 nM; in assay [2], below 100 nM; in assay [3], below 100 nM; in assay [4], below 100 nM.
As to `COc1cc(Cl)cc(CC(=O)Nc2sc3c(c2C#N)CN(Cc2cccc(F)c2)CC3)c1` [Example 39, 2 (3 chloro-5-methoxyphenyl)-N-(3-cyano-5-(3-fluorobenzyl)-4,5,6,7-tetrahydrothieno[3,2-c]pyridin-2-yl)acetamide], the EC50 is above 1000 nM in assay [1], above 1000 nM in assay [2], 100 to 1000 nM in assay [3] and 100 to 1000 nM in assay [4].
Consider `N#Cc1c(NC(=O)Cc2ccc(S(N)(=O)=O)cc2)sc2c1CCN(CC1CCCCC1)CC2` [Example 125, N-(3-cyano-6-(cyclohexylmethyl)-5,6,7,8-tetrahydro-4H-thieno[2,3-d]azepin-2-yl)-2-(4-sulfamoylphenyl)acetamide], for which the EC50 in assay [1] is above 1000 nM; in assay [2], 100 to 1000 nM; in assay [3], 100 to 1000 nM; in assay [4] it was 100 to 1000 nM.
With `COc1cc(CC(=O)Nc2sc3c(c2C#N)CN(CC2CCCCC2)C(C)(C)C3)ccc1S(N)(=O)=O` [Example 82, N-(3-cyano-5-(cyclohexylmethyl)-6,6-dimethyl-4,5,6,7-tetrahydrothieno[3,2-c]pyridin-2-yl)-2-(3-methoxy-4-sulfamoylphenyl)acetamide], the EC50 in assay [1], in assay [2], in assay [3] and in assay [4] was below 100 nM each time.

The record behind these values is patent US12012417B2, “N-substituted tetrahydrothienopyridine derivatives and uses thereof” (NOVARTIS AG, priority 2018, dated 2024).
